Key:
[1] = test system: C57BL/6 depilated male mice; experiment: Hair growth in depilated mice under topical treatment (photographs, trichoscopy); type: in vivo, mouse; conditions: for hair growth in magnified photographs of depilated areas: day 9, vs vehicle control
Protocol: FIG. 7. Galunisertib induces hair growth in C57BL/6J mice. a) Mouse treatment scheme. 7-week-old C57BL/6J mice were depilated (day −2) and 2 days later (day 0) started being treated with vehicle (70% ethanol), galunisertib (10 μM and 100 μM) or 3% minoxidil for 21 non-continuous days. b) Photographs of C57BL/6J mice treated with vehicle (control), 10 μM and 100 μM galunisertib or 3% minoxidil at days 0, 5, 9 and 14. c) Magnified photographs of the depilation site of C57BL/6J mice treated with vehicle (Ctr), galunisertib (10 and 100 μM) or minoxidil at days 7 and 9. d) Trichoscopy images of depilated regions at days 8 and 10. N≥3 animals were used per timepoint per condition for image and skin collection; e) Mass spectrometry analysis of skin biopsies retrieved at day 14 from animals treated with 10 μM and 100 μM galunisertib. Values are mean±SD of n=3 animals per condition.
Mice are six-week-old male C57BL/6J mice purchased from the Charles River Laboratories. The animals are housed and allowed to adapt to the laboratory environment for one week before experiments start. Animals are maintained under a 12 h light/dark cycle and fed with regular rodent's chow and tap water ad libitum, at the i3S animal facility.
For depilation and treatments in order to synchronize hair growth cycle in mice, anagen is induced by depilation. Seven-week-old male C57BL/6J mice are anesthetized using 3% isoflurane and their back is shaved using a hair shaver. Hair is then further depilated using cold wax bands (Veet Minima). After the depilation, the excess of wax is removed with mineral oil, and a skin protector spray, Douxo Calm Sérum, is applied, followed by Cavilon, a barrier film spray. To allow for skin to fully recover, topical treatments started two days later. During the procedures mice are under volatile anesthesia (3% isoflurane) and are kept warmed. Mice are photographed with a camara or a trichoscope (Dino-Lite), before topical application of galunisertib (10 μM and 100 μM), minoxidil (3%) or vehicle (70% ethanol). Topical applications are performed using a syringe in order to cover the depilated area only. Hair growth is followed for 21 days, although telogen is apparent at day 18 post-treatment.

[2] = test system: cleaved Caspase 3; experiment: Immunohistochemistry of cryo-sectioned HFOCs: cleaved Caspase 3; type: cell-based, human; conditions: mainly detected in the DP; HFOCs treated with Galunisertib for 48 h vs untreated
Excerpt: (§1) Hair growth percentages is normalized to day 0.
(§2) FIG. 5. Galunisertib improves cell proliferation and the WNT signaling in the bulb epithelial compartment. a) Representative IHC images of tissue sections of HFOCs untreated and treated with Galunisertib and stained for KI67 and cleaved caspase 3. Nuclei were counterstained with DAPI. Scale bar, 100 μm. b,c) Adjusted intensity levels of KI67 and cleaved caspase 3 per DP and HB (bulb epithelium) areas, respectively, as measured in tissue sections from HFOCs with and without Galunisertib. All values are mean±SD of HFOCs established from n=8 donors (n>16 HFs per condition). ns p≥0.05, *p≤0.05 by unpaired t-test.
(§3) For immunohistochemistry, 2-day HFOCs are used for immunohistochemistry analysis. Briefly, HFs were embedded on a drop of OCT and stored at −80° C. 8 μm cryosections are air-dried and fixed in 4% PFA (for TGFβ2, cleavage Caspase 3, p-SMAD2 and KI67 immunostainings) or cold acetone (for LEF1 and β-catenin immunostaining). Following 2×5 min rinse with PBS, microsections are permeabilized 2× for 10 min with PBS+0.3% Triton X 100 (PBS-T) and then blocked with PBS+10% fetal bovine serum (FBS) for 1 hour at room temperature. Antibodies are diluted in PBS-T+1% FBS and incubation done overnight at 4° C. […]

[3] = test system: TGFβ2; experiment: qRT-PCR of TGFβ transcripts in dermal papilla isolated from HFOCs; type: cell-based, human; conditions: Galunisertib-treated HFOCs (10 μM, 48 h)
Excerpt: Concentration and purity are ascertained in a NanoDrop spectrophotometer.
In addition, only anagen hair follicles are used.
as §1

[4] = test system: Ki67 proliferation marker; experiment: Immunohistochemistry of cryo-sectioned HFOCs: Ki67; type: cell-based, human; conditions: HFOCs treated with Galunisertib for 48 h vs untreated
Excerpt: as §1, §2, §3

[5] = test system: Ki67 proliferation marker; experiment: Ki67 immunohistochemistry of mouse dorsal skin (hair germ); type: in vivo
Protocol: FIG. 8. Galunisertib increases anagenic hair follicle growth. a) Hematoxilin-eosin staining of transversal paraffin sections of the dorsal skin of mice treated with vehicle (control), galunisertib (10 μM and 100 μM) or minoxidil at days 0, 5, 7, 14, 16 and 18 of treatment. Scale bar, 500 μm. b) Number of hair follicles per field view and c) number of hair follicles per field view in the subcutaneous layer at different timepoints along the experiment. d) Ki67 immunostaining of longitudinal paraffin sections of the dorsal skin of mice treated with vehicle (control), galunisertib (10 μM and 100 μM) or minoxidil at days 5, 7 and 14. Scale bar, 200 μm. e) Number of Ki67-positive cells in the hair bulb at days 5, 7 and 14. N≥3 animals per timepoint per condition were analyzed, and N≥4 field views were quantified per animal. Values are mean±SD. *p<0.05; **p<0.01 by Student's t-test.
For histology and immunohistochemistry, dorsal skin from the depilated region is collected from mice at different timepoints across the experiment (days 0, 5, 7, 14 and 18) and fixed in 10% buffered formalin, imbedded in paraffin and sectioned along the transversal and longitudinal plan of the hair follicles (3 μm sections). Standard protocol is used for hematoxylin and eosin staining. […]

SMILES: Cc1cccc(-c2nn3c(c2-c2ccnc4ccc(C(N)=O)cc24)CCC3)n1 [Galunisertib]
- adverse side effects ([1]; mice under topical galunisertib (10 and 100 μM)): no apparent adverse side effects
- hair growth in magnified photographs of depilated areas ([1]; topical 10 μM galunisertib): marked improvement of hair growth
- hair growth in magnified photographs of depilated areas ([1]; topical 100 μM galunisertib, ranked after 10 μM galunisertib): marked improvement of hair growth
- hair density by trichoscopy examination of depilated regions ([1]; topical galunisertib, in particular 10 μM, days 8 and 10): increased hair density
- macroscopic assessment of hair growth: darkness of depilated area (hair density) ([1]; topical, galunisertib 10 and 100 μM, minoxidil 3%, vs. control mice, day 5 to day 14): consistently darker
- fluorescence intensity levels of cleaved Caspase 3 [2]: do not show significant changes
- TGFβ2 gene expression in the DP [3]: inhibit TGFβ2 gene expression
- number of bulb epithelial cells staining positive for Ki67 [4]: increased number
- Ki67 fluorescence intensity levels ([4]; bulb epithelium): higher
- Ki67-positive cells in the hair germ, comparison with minoxidil ([5]; day 7): more effective than minoxidil
- number of Ki67-positive cells in the hair germ ([5]; days 5, 7 and 14 post-treatment, vs vehicle treatment): increased number of Ki67-positive cells

Reference: US20260256771A1, “GALUNISERTIB FOR USE IN THE TREATMENT OF ANDROGENIC ALOPECIA” (SAÚDE VIÁVEL, S.A., priority 2022, published 2026)
